Holding throughout (format): cell-based
In assay [1] the target is T1, OCT1 (Homo sapiens, UniProt O15245).
T1 construct: gene SLC22A1; OCT1 expressed in oocytes (pcDNA3.1-OCT1)
T1 sequence (O15245 1-554): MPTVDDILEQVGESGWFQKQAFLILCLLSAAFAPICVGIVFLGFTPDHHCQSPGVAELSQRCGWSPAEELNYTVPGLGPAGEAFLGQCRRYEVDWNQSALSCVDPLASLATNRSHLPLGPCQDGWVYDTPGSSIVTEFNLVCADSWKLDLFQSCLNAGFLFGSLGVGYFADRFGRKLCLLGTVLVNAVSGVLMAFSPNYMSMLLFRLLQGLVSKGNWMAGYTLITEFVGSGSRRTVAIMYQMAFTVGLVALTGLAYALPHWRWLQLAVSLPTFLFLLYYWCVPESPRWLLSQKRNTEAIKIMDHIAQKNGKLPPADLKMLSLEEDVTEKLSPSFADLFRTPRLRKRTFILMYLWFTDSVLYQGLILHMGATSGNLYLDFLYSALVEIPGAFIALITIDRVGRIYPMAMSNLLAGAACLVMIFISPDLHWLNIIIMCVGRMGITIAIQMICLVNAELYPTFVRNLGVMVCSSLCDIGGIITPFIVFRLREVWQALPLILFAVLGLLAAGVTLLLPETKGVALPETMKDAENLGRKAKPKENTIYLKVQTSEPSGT
The experiment in a line: inhibition of OCT1-mediated [3H]MPP+ uptake and direct tryptophan uptake in oocytes. Conditions: read-out: % inhibition at 1 mM.

Assay [2] has as its target T2, Organic cation transporter 2 (OCT2) (Homo sapiens, UniProt O15244).
T2 construct: gene SLC22A2
The experiment in a line: inhibition of [3H]MPP+ uptake and direct [3H]tryptophan uptake in OCT2-expressing oocytes.

In assay [3] the target is T3, Organic cation transporter 2 (OCT2) 808G>T variant (Homo sapiens, UniProt O15244).
T3 construct: gene SLC22A2; OCT2 808G>T variant expressed in oocytes
T3 sequence (O15244 1-555): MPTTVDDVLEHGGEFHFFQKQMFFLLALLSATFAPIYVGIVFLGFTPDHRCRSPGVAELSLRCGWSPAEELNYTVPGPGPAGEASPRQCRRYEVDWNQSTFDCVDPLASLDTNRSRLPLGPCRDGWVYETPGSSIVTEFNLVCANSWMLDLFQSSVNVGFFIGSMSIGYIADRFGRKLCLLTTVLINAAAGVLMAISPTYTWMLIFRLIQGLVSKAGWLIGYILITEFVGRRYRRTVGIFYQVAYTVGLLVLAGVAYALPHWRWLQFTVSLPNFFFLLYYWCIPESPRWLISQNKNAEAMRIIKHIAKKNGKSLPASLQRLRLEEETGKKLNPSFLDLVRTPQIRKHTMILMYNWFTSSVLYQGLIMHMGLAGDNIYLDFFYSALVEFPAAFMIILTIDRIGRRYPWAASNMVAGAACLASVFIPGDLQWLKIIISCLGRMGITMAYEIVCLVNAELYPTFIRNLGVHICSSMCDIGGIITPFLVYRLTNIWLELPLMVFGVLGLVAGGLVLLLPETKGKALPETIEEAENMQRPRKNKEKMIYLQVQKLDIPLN
The experiment in a line: [3H]tryptophan uptake ([…]) in oocytes expressing the variant.

Assay [4] has as its target T2, Organic cation transporter 2 (OCT2). The experiment in a line: [3H]MPP+ uptake ([…]) in OCT2-expressing oocytes, water-injected background subtracted.
For assay [5], the target named is T4, Organic cation transporter 2 (OCT2) (Homo sapiens, UniProt O15244).
T4 construct: gene SLC22A2; OCT2 expressed in oocytes
T4 sequence (O15244 1-555): T3 sequence (O15244 1-555)
In words: inhibition of [3H]MPP+ uptake in OCT2-expressing oocytes.

The inhibition is the drop in the measured response relative to a control, in per cent. What is called IC50 is the midpoint of a concentration-inhibition curve.

The structures appear in SMILES notation.

With `N[C@@H](Cc1c[nH]c2ccccc12)C(=O)O` [L-tryptophan], the inhibition at 1000 µM in assay [1] amounted to 50%. This compound gave an IC50 in assay [2] of 6.11 mM. For the same compound, the “[3H]tryptophan uptake (100 nM) in oocytes expressing the variant” value in assay [3] worked out at 0.14 fmol/min/oocyte. Regarding `C[n+]1ccc(-c2ccccc2)cc1` [MPP+], the “[3H]MPP+ uptake (18.5 nM) in OCT2-expressing oocytes, water-injected background” value in assay [4] is 2.9 fmol/min/oocyte.

`O=c1ccn([C@@H]2O[C@H](CO)[C@@H](O)[C@H]2O)c(=O)[nH]1` [uridine] registered an IC50 in assay [5] of 51.5 mM.
